Usually IC50 stands for the point on the concentration scale where inhibition reaches its midpoint.

This assay deals with Cdk9/cyclinT1 (Homo sapiens, UniProt P50750). Briefly: Cdk9/cyclinT1 IMAP Protocol (fluorescence polarization kinase assay). The following applies: Cdk9_cyclinT1_IC50, Table V; generated using one of the two Cdk9/cyclinT1 assays (IMAP or Alpha Screen), not stated which; ATP 6 uM. (In fluorescence polarisation assays a small probe gives low polarisation when free and higher when bound to something large.)
Sequence of Cdk9/cyclinT1 (P50750 whole entry): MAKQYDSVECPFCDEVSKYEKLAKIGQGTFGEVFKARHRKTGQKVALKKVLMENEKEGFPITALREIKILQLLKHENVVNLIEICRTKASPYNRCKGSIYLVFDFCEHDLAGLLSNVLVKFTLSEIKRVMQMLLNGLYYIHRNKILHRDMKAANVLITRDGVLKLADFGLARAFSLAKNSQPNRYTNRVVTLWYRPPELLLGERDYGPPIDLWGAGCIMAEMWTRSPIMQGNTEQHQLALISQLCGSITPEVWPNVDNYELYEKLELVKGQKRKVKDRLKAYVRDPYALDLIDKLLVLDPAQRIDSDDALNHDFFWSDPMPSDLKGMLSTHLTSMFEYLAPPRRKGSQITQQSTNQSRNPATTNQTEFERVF
Sequence of Cdk9/cyclinT1 (O60563 whole entry partner): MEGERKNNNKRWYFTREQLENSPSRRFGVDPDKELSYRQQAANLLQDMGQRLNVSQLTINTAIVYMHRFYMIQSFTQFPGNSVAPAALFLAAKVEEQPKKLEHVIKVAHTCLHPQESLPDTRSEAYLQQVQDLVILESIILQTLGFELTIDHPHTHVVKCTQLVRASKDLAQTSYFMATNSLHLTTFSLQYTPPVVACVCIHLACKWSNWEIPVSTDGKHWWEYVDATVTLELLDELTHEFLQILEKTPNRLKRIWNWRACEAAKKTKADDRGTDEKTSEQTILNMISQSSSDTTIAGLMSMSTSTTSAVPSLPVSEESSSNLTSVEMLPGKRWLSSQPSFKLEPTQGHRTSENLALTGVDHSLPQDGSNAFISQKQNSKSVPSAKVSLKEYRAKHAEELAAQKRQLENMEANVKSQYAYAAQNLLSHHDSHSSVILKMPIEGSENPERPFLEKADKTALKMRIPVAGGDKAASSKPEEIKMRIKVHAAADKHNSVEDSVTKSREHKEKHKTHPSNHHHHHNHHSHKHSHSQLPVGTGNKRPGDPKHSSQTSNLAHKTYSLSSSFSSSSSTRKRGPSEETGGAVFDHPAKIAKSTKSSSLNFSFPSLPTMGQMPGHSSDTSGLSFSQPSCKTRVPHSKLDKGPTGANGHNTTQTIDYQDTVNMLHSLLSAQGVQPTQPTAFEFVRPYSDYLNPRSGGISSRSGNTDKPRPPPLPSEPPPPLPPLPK
`CC1(C)CC(CNc2cccc(-c3cc(NC(=O)[C@H]4CNCCO4)ncc3Cl)n2)CCO1` (stereo partly drawn) [Example 120, (R)-Morpholine-2-carboxylic acid {5′-chloro-6-[(2,2-dimethyl-tetrahydro-pyran-4-ylmethyl)-amino]-[2,4′]bipyridinyl-2′-yl}-amide]: the IC50 is < 8 nM.
The value for `O=C(Nc1cc(-c2nc(NCC3CCOCC3)ccc2Cl)ccn1)[C@@H]1CCCNC1` [Example 167, (R)-Piperidine-3-carboxylic acid {3-chloro-6-[(tetrahydro-pyran-4-ylmethyl)-amino]-[2,4′]bipyridinyl-2′-yl}-amide] was 4 nM; that for `CS(=O)(=O)N[C@@H]1CC[C@H](C(=O)Nc2cc(-c3nc(NCC4CCOCC4)ccc3Cl)c(Cl)cn2)C1` [Example 109, (1S,3R)-3-Methanesulfonylamino-cyclopentanecarboxylic acid {3,5′-dichloro-6-[(tetrahydro-pyran-4-ylmethyl)-amino]-[2,4′]bipyridinyl-2′-yl}-amide] was < 8 nM.
`COC1(CNc2nc(-c3cc(NC(=O)C4CCC(C)NC4)ncc3Cl)ccc2F)CCOCC1` (stereo not shown) [Example 261, 6-Methyl-piperidine-3-carboxylic acid {5′-chloro-5-fluoro-6-[(4-methoxy-tetrahydro-pyran-4-ylmethyl)-amino]-[2,4′]bipyridinyl-2′-yl}-amide]: the IC50 is 1 nM.
The result for `CS(=O)(=O)N1CCC[C@@H](C(=O)Nc2cc(-c3cccc(NCC4CCOCC4)n3)c(Cl)cn2)C1` [Example 83, (R)-1-Methanesulfonyl-piperidine-3-carboxylic acid {5′-chloro-6-[(tetrahydro-pyran-4-ylmethyl)-amino]-[2,4′]bipyridinyl-2′-yl}-amide] reads 482 nM; that for `O=C(Nc1cc(-c2cccc(NCC3CCOCC3)n2)c(Cl)cn1)[C@@H]1CCCO1` [Example 67, (S)-Tetrahydro-furan-2-carboxylic acid {5′-chloro-6-[(tetrahydro-pyran-4-ylmethyl)-amino]-[2,4′]bipyridinyl-2′-yl}-amide], 396 nM.
The value for `O=C(Nc1cc(-c2cccc(NCC3CCOCC3)n2)c(Cl)cn1)[C@H]1CCCN1` [Example 57, (R)-Pyrrolidine-2-carboxylic acid {5′-chloro-6-[(tetrahydro-pyran-4-ylmethyl)-amino]-[2,4′]bipyridinyl-2′-yl}-amide] was 81 nM.
The value for `C[C@@H]1CC[C@@H](C(=O)Nc2cc(-c3ccc(F)c(NCC4CCOCC4)n3)c(Cl)cn2)CN1C` (single isomer, unassigned) [Example 196] was 17 nM.
As to `CC1(C)COC[C@H](CNc2cccc(-c3cc(NC(=O)[C@@H]4CCCNC4)ncc3Cl)n2)O1` (single isomer, unassigned) [Example 234], half-maximal inhibition (IC50) required 3 nM.
The value for `COC(=O)N1CCC[C@H](C(=O)Nc2cc(-c3nc(NCC4CCOCC4)ccc3Cl)c(Cl)cn2)C1` [Example 105, (S)-3-{3,5′-Dichloro-6-[(tetrahydro-pyran-4-ylmethyl)-amino]-[2,4′]bipyridinyl-2′-ylcarbamoyl}-piperidine-1-carboxylic acid methyl ester] was < 8 nM; that for `C[C@@H]1CC[C@@H](C(=O)Nc2cc(-c3cccc(NC[C@@H]4CCOC(C)(C)C4)n3)ccn2)CN1` (mixture of isomers) [Example 226, (3R,6R)-/(3S,6S)-6-Methyl-piperidine-3-carboxylic acid {6-[((R)-2,2-dimethyl-tetrahydro-pyran-4-ylmethyl)-amino]-[2,4′]bipyridinyl-2′-yl}-amide] was 1 nM; that for `CS(=O)(=O)N[C@H]1CC[C@@H](C(=O)Nc2cc(-c3nc(NCC4CCOCC4)ccc3Cl)c(Cl)cn2)C1` [Example 110, (1R,3S)-3-Methanesulfonylamino-cyclopentanecarboxylic acid {3,5′-dichloro-6-[(tetrahydro-pyran-4-ylmethyl)-amino]-[2,4′]bipyridinyl-2′-yl}-amide] was < 8 nM.
The value for `O=C(Nc1cc(-c2cccc(NC[C@@H]3CCCOC3)n2)c(Cl)cn1)[C@@H]1CCCNC1` (single isomer, unassigned) [Example 79] was < 8 nM.

For the origin of these results see patent publication US20110130380A1, “Heteroaryl Kinase Inhibitors” (priority 2009, published 2011).
